The values below come from patent US20220187281A1, “METHODS AND SYSTEMS FOR EVALUATION OF CELL SAMPLES” (priority 2019, published 2022).

Experiment [1] has as its system CN0458 colon tumor slices. Description: Cell-Titer Blue viability of CN0458 colon PDX tumor slices. The experiment is classed as cell-based, human. The following applies: 100 uM.
Experiment [2] concerns colorectal cancer PDX model (mCRC). Description: Cell-Titer Blue viability of colorectal cancer PDX model (FIG. 2E). The note with it: oxaliplatin 0.1, 1, 10 μM; 5-FU 1, 10, 100 μM; days 0, 4, 8 in vitro. The format is cell-based, human.
Another experiment concerns BR0851 TNBC PDX. The note with it: JAX PDX Resource data; cited from earlier work.
For a further experiment, the system named is BR1126 TNBC PDX. The note with it: JAX PDX Resource data; cited from earlier work.
The test system of another experiment is BR0851 TNBC PDX slices. Briefly: Immunohistochemical analysis of BR0851 TNBC PDX slices. The format is cell-based, human. The note with it: BR0851 slices at 13 div; for overall cell numbers (immunohistochemical analysis): compared with vehicle.
The subject of the next experiment is BR0851 TNBC PDX tumor. Briefly: Cell-Titer Blue viability of BR0851 TNBC PDX tumor slices. The format is cell-based, human. The following applies: for sensitivity by viability assay readings: 12 days ex vivo compared to 0 div; for response profile of tumor slices: by 13 div, long-term exposure.
The subject of another experiment is BR1126 TNBC PDX tumor. Description: Cell-Titer Blue viability of BR1126 TNBC PDX tumor slices. The experiment is classed as cell-based, human.
The test system of experiment [3] is patient tumor tissue samples from two locations. Description: Viability of samples from two locations of the same patient tumor (Example 6). The experiment is classed as cell-based. The note with it: 0, 3, 5, 9, and 12 days in vitro.
Description: Tumor tissue samples from two locations of the same patient tumor are obtained and cultured as described in Example 1. Each sample is treated with Cisplatin (Cis), Doxorubicin (Dox) or Paclitaxel (Taxol). Viability measurements are obtained at 0, 3, 5, 9, and 12 days in vitro.
Experiment [4] concerns human metastatic colorectal cancer (mCRC) biopsy core. Description: CTB viability of human mCRC biopsy core slices in long-term culture (therapy resistance). The experiment is classed as cell-based. The following applies: encorafenib 100 nM, binimetinib 100 nM; 16 days in culture (days 16 and 20). As for the experimental part:
(§1) 5 μl of Cell-Titer Blue (CTB) (Promega) substrate was added to 1 ml of culture medium and incubated at 37° C. for 15 or 24 hr. 100 μl of media was removed from each sample culture and fluorescence was measured (Ex560/Em590) using Enspire® multimode plate reader (Perkin Elmer®). Background fluorescence of the culture medium was subtracted from each sample reading at each day Immediately following the CTB reading, media was changed and drugs were added to fresh media to continue culture. At desired time points, additional viability measurements were made to collect longitudinal data and conditioned media is collected and analyzed. After the final time point, tissues were fixed in formalin and embedded in paraffin or OCT for histological analyses or lysed in RIPA buffer or Trizol and conditioned media is frozen. To account for variability in tissue composition of each slice punch, viability readings of each sample was normalized to the respective CTB reading immediately after slicing (0 days ex vivo: 1 dex CTB reading) and relative fold changes in CTB readings at each time point were analyzed.
(§2) Samples were precision cut into […] thick slices using a Vibratome VT1200S (Leica Microsystems). […]

In the next experiment the test system is CNSTG colon tumor slices. Briefly: Cell-Titer Blue viability of CNSTG colon PDX tumor slices. The experiment is classed as cell-based, human. The following applies: 100 uM.
The subject of experiment [5] is human metastatic colorectal cancer (mCRC) biopsy cores. Description: CTB viability of mCRC biopsy core slices from two patients (immunotherapy response). The experiment is classed as cell-based. The note with it: nivolumab 10 μg/mL, encorafenib 100 nM, cetuximab 10 μg/mL; early and late time points. The procedure: as §1, §2
[6] abbreviates: compared with vehicle or Cisplatin treated tissues.

As for `O=c1[nH]cc(F)c(=O)[nH]1` [5-FU, 5-fluorouracil], in experiment [1], the “suppression of viability of CN0458 slices compared with CNSTG slices” value is on record as “more effective”. For the same compound, the cell viability response result in experiment [2] is “no reduction in cell viability”.
On to `N.N.[Cl][Pt][Cl]` [Cisplatin], for which the “in vivo treatment response” value in the experiment on BR0851 TNBC PDX is given as “no response”. The “in vivo treatment response” value in the experiment on BR1126 TNBC PDX is recorded as “partial response”. Besides, the “overall cell numbers (immunohistochemical analysis)” value in the experiment with BR0851 TNBC PDX slices is recorded as “similar”. In the experiment on BR0851 TNBC PDX tumor, the “sensitivity by viability assay readings” value is reported as “insensitive” and the “response profile of tumor slices” value was “progressive disease profile”. Besides, in the experiment with BR1126 TNBC PDX tumor, the “ex vivo treatment response” value was “partial response” and the “sensitivity by viability assay readings” value is given as “sensitive”. Also, the “difference between viability measurements of the two tumor locations” value in experiment [3] is reported as “significant difference”.
Take `COc1cccc2c1C(=O)c1c(O)c3c(c(O)c1C2=O)C[C@@](O)(C(=O)CO)C[C@@H]3O[C@H]1C[C@H](N)[C@H](O)[C@H](C)O1` [Doxorubicin]: the “overall cell numbers (immunohistochemical analysis)” value with BR0851 TNBC PDX slices is “overall reduction in cell numbers”. Further, in the experiment on BR0851 TNBC PDX slices (setting [6]), the necrotic regions result was “increase”; the “pyknotic and abnormal nuclei” value is “increase”. In addition, in the experiment with BR0851 TNBC PDX tumor, the “sensitivity by viability assay readings” value is on record as “sensitive” and the “response profile of tumor slices” value is on record as “complete response”. Further, the “difference between viability measurements of the two tumor locations” value in [3] was “significant difference”.
In the case of `CC(=O)O[C@H]1C(=O)[C@@]2(C)[C@H]([C@H](OC(=O)c3ccccc3)[C@]3(O)C[C@H](OC(=O)[C@H](O)[C@@H](NC(=O)c4ccccc4)c4ccccc4)C(C)=C1C3(C)C)[C@]1(OC(C)=O)CO[C@@H]1C[C@@H]2O` [Paclitaxel], the “sensitivity by viability assay readings” value in the experiment on BR1126 TNBC PDX tumor is on record as “sensitive”. In addition, the “difference between viability measurements of the two tumor locations” value in experiment [3] is given as “significant difference”.
For the compound `Cn1cnc2c(F)c(Nc3ccc(Br)cc3F)c(C(=O)NOCCO)cc21` [binimetinib], in [4], the “therapy resistance in long-term culture (viability)” value was “suppressed”.
Take `COC(=O)N[C@@H](C)CNc1nccc(-c2cn(C(C)C)nc2-c2cc(Cl)cc(NS(C)(=O)=O)c2F)n1` [encorafenib]: in experiment [4], the “therapy resistance in long-term culture (viability)” value was “emergence of encorafenib resistance”.
Turning to `O=C1[O][Pt]2([NH][C@@H]3CCCC[C@H]3[NH]2)[O]C1=O` [oxaliplatin], the “suppression of viability of CNSTG slices compared with CN0458 slices” value with CNSTG colon tumor slices is “more effective”. In experiment [2], the cell viability response entry was “dose and time-dependent response”.
With nivolumab, the “sensitivity of the two mCRC patient samples (viability)” value in experiment [5] is reported as “differential sensitivity”.
